For data set [1], the system named is mice with paclitaxel-induced neuropathic pain (CIPN). The experiment in a line: von Frey paw withdrawal threshold (mechanical allodynia), paclitaxel-induced CIPN / central sensitization, treatment of established pain, topical test compounds. It counts as in vivo, mouse. On the procedure:
Paw withdrawn, licking or shaking were considered positive responses.
(§1) The first doses were administered 5 days after the last administration of paclitaxel (i.e., at day 0).
The PWT test was performed prior to the administration of paclitaxel (day −8) to establish the threshold in mice without neuropathic pain associated with CIPN (the value shown is an average of the PWT in all groups at day −8).
Pain associated with CIPN was established in line with the experiments disclosed herein. Mice were treated with naproxen 2.4% (equimolar to PN 5%), aspirin 1.7% (equimolar to PA2 5%); or ibuprofen 2.5% (equimolar to PI 5%) or vehicle applied topically to both hind paws 3×/day for 14 days.
CIPN was induced in mice with chemotherapeutic agents using established protocols (Carozzi et al, 2010; Currie et al, 2019; Eldridge et al, 2020).
The first doses were administered 1 day after the last administration of paclitaxel (i.e., at day 0).
as §1
The PWT test was performed on day 21, at the end of the experiment, but was also additionally determined on day 14 for LXIX.

The test system of data set [2] is mice with paclitaxel-induced CIPN. The experiment in a line: von Frey PWT, paclitaxel CIPN model, orally administered compounds. It counts as in vivo, mouse. The settings on record: mouse, in vivo.
Excerpt: CIPN was induced in mice with chemotherapeutic agents using established protocols (Carozzi et al, 2010; Currie et al, 2019; Eldridge et al, 2020). […] This dosing regimen of paclitaxel produces pain associated with CIPN with time courses that are similar to those of pain after paclitaxel administration in cancer patients.
Group 1: naïve mice (i.e. no paclitaxel, n=8) • 2. Group 2: paclitaxel only (n=8) • 3. Group 3: paclitaxel plus vehicle (n=8) • 4. […] Group 5: paclitaxel pluse sulindac (n=8)
The PWT test was performed on day 7.
Phospho-naproxen (PN) and naproxen were given by oral gavage, three times a day for 7 days. Their doses were as follows: PN, 65 mg/kg; naproxen, 35 mg/kg (equimolar to PN). The response of mechanical allodynia to phospho-naproxen (PN) and naproxen was tested on day 7.
(§2) This dosing regimen of paclitaxel produces pain associated with CIPN with time courses that are similar to those of pain after paclitaxel administration in cancer patients.
Phospho-ibuprofen (PI) (Formula III), phospho-glycerol-ibuprofen (PGI) (Formula LXXI), phospho-ibuprofen-amide (PIA) (Formula XI), and ibuprofen were given by oral gavage, three times a day for 6 days. Their doses were as follows: ibuprofen, 40 mg/kg; PI, 80 mg/kg; PIA, 80 mg/kg; all three were equimolar.
The response of mechanical allodynia to these compounds was tested on day 6, using the PWT test.
as §2
NO-sulindac (Formula XLIV), HS-sulindac (Formula XXXIV), platinum-sulindac (Formula LXVII), and NOSH-1 (Formula LIX) were given by oral gavage, three times a day throughout the study period. Their doses were all 100 mg/kg.
The response of mechanical allodynia to these compounds was tested on the days set out in the table below, via the PWT test.
LXIX was given by oral gavage, once a day for 14 days at a dose of 100 mg/kg.
The response of mechanical allodynia to these compounds was tested on day 14, via the PWT test.

In data set [3] the test system is mice with chronic constriction injury of the left sciatic nerve (PTPN). Put plainly: von Frey PWT, chronic constriction injury (CCI) model of PTPN, topical compounds. In kind it is in vivo, mouse. The settings on record: PI, PN 5% on left hind paw 3x/day 14 days; day 14. On the procedure:
The PWT test was performed following ligation, but prior to treatment to determine baseline values. The PWT was then further measured on day 14.

For data set [4], the system named is mice with NTG-induced migraine. The experiment in a line: von Frey PWT, NTG-induced migraine model, oral or intraperitoneal compounds. The settings on record: mouse, in vivo. It counts as in vivo, mouse. Here is the method:
Phosphonaproxen (Formula VIII), and its parent compound, naproxen, were administered orally to each mouse group. All compounds were administered at equimolar doses. In particular, phosponaproxen was administered at 65 mg/kg, and naproxen was administered at 35 mg/kg, 30 minutes after NTG administration. The response of mechanical allodynia was tested 30 minutes after administration.

The next data set can be described thus: in vivo. The settings on record: Sprague-Dawley, rat, po, 95 mg/kg; for AUC(0-t): AUC0-24 h; for AUC(0-t) / Cmax / Tmax: single oral dose PN 95 mg/kg, rats. On the procedure: Approximately 800 μL of blood were collected through cardiac puncture and immediately centrifuged.
Tissue samples were harvested using separate dissection instruments for each tissue sample to avoid cross contamination, and snap frozen. The levels of the test drug were determined by HPLC.
As previously described (Wen et al, 2019), each plasma sample was mixed with double volume of acetonitrile and centrifuged at 13,200 rpm for 15 min. Tissue samples were weighed, ddH2O (100-300 μL, depending on tissue weight) was added, and they were homogenized. Following addition of acetonitrile (twice the volume of the homogenate), the mixture was sonicated for 10 min, centrifuged at 13,200 rpm for 15 min, and analyzed by HPLC, as reported (Wen et al, 2019).
It was performed following a previously reported method (Xie et al, 2012). Briefly, the HPLC system consisted of a Waters Alliance 2695 Separations Module (Milford, MA, USA) equipped with a Waters 2998 photodiode array detector (328 nm) and a Thermo Hypersil BDS C18 column (150×4.6 mm, particle size 3 μm). The mobile phase consisted of a gradient between solvent A (formic acid, CH3CN, H2O (0.1:4.9:95 v/v/v)) and solvent B (CH3CN) at a flow rate of 1 mL·min−1 at 30° C. We applied gradient elution from 30 to 100% solvent B from 0-6 min, and it was maintained at 100% solvent B until 8 min.
The methods are identical to those used in Example 27.
A single dose of PN or PSA was given by oral gavage to groups of three Sprague-Dawley rats, which were euthanized and dissected according to the early example. The oral gavage solution of phosphonaproxen was prepared by dissolving in 10% DMSO and then suspending it in corn oil.

One may read the half-life as how long it takes for the measured level to halve. A low value points to fast loss. As a reminder, the AUC(0-t) is the area under the concentration-time curve up to a stated or last time point. The low end stands for less exposure, the high end for more exposure. As usually defined, the Cmax is the peak of the concentration-time curve. What is called Tmax is the time at which the peak concentration occurs.

As for `CCOP(=O)(OCC)OCCCCOC(=O)C(C)c1ccc2cc(OC)ccc2c1` (stereo not shown) [PN, phospho-naproxen], in data set [1] (group value after paclitaxel, before study drug), the “Paw-withdrawal threshold, g Mean ± SEM, Day 0” value is 0.64 ± 0.06 g. Besides, the “Paw-withdrawal threshold, g Mean ± SEM, Day 14” value in data set [1] (mouse, in vivo) is 1.19 ± 0.09 g. Further, the “PWT, g Mean ± SEM” value amounted to 0.66 ± 0.03 g in data set [2], 1.70 ± 0.12 g in data set [3] and 1.48 ± 0.22 g in data set [4]. In “in vivo”, this compound had a half-life of 540 min. Moreover, the exposure AUC(0-t) in “in vivo” (blood) amounted to 1.7 µM·h; in the data set “in vivo” (cerebellum), 3.1 µM·h; in “in vivo” (medulla) it was 6.9 µM·h; in “in vivo” (stomach) it was 4340 µM·h; in the data set “in vivo” (vagus nerve), 63.1 µM·h. The peak concentration (Cmax) came to 3.5 ± 1.2 µM in the data set “in vivo” (blood); 1.2 ± 0.02 µM in the data set “in vivo” (cerebellum); 3.1 ± 0.6 µM in “in vivo” (medulla); 717.2 ± 5 µM in the data set “in vivo” (stomach); 24.2 ± 3.1 µM in “in vivo” (vagus nerve). For the same compound, the Tmax worked out at 60 min in the data set “in vivo” (blood); 30 min in “in vivo” (cerebellum); 30 min in “in vivo” (medulla); 60 min in “in vivo” (stomach); 30 min in “in vivo” (vagus nerve). For the same compound, the “hydrolysis by carboxylesterases, times slower than PS” value in the data set with carboxylesterases is listed as “about 5 times”.
